Results reported in patent US10689331B2, “IDO inhibitors” (Bristol-Myers Squibb Company, priority 2015, dated 2020).

Molecular target: T1, human IDO1 (Homo sapiens, UniProt P14902)
T1 construct: expressed in transfected cells
Test: HEK Human IDO-1 inhibition assay (kynurenine readout, Ehrlich reagent, absorbance 490 nm)
Format: cell-based
Details: human IDO1/HEK293 cells, incubated 20 hours with compound; 500 nM reference standard = 100% inhibition
Method: HEK293 cells were transfected with a pCDNA-based mammalian expression vector harboring human IDO1 cDNA (NM 002164.2) by electroporation. They were cultured in medium (DMEM with 10% FBS) containing 1 mg/ml G418 for two weeks. Clones of HEK293 cells that stably expressed human IDO1 protein were selected and expanded for IDO inhibition assay.
The human IDO1/HEK293 cells were seeded at 10,000 cells per 50 uL per well with RPMI/phenol red free media contains 10% FBS in a 384-well black wall clear bottom tissue culture plate (Matrix Technologies LLC) 100 nL of certain concentration of compound was then added to each well using ECHO liquid handling systems. The cells were incubated for 20 hours in 37° C. incubator with 5% CO2.
The compound treatments were stopped by adding Trichloroacetic Acid (Sigma-Aldrich) to a final concentration at 0.2%. The cell plate was further incubated at 50° C. for 30 minute. The equal volume supernatant (20 uL) and 0.2% (w/v) Ehrlich reagent (4-dimethylaminobenzaldehyde, Sigma-Aldrich) in glacial acetic acid were mixed in a new clear bottom 384-well plate. This plate was then incubated at room temperature for 30 minute. The absorbance at 490 nm was measured on Envision plate reader. Compound IC50 values were calculated using the counts of 500 nM of a reference standard treatment as one hundred percent inhibition, and counts of no compound but DMSO treatment as zero percent inhibition.

T1 sequence (P14902 whole entry): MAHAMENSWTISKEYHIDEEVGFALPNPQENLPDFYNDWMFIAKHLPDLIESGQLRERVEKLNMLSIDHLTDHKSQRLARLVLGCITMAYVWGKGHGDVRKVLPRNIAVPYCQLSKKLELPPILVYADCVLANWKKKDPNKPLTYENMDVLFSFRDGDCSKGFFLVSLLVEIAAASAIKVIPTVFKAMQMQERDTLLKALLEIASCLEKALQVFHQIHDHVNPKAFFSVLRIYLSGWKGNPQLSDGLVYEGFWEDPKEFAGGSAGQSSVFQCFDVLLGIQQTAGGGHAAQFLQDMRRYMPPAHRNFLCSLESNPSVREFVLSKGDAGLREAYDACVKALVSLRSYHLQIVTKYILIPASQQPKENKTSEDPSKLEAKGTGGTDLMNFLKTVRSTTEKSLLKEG

Row | SMILES | IC50
1 | Cc1ccc(CC(=O)Nc2cc(OC(C)C(=O)NS(=O)(=O)C3CC3)ccc2N(CC(C)C)C2CCCCC2)cc1 (racemic) [Example 78, (±)-2-(4-(cyclohexyl(isobutyl)amino)-3-(2-(p-tolyl)acetamido)phenoxy)-N-(cyclopropylsulfonyl)propanamide] | < 0.1 µM
2 | CCCN(Cc1ccc(Cl)cc1)c1ccc(OCC(=O)O)cc1NC(=O)Nc1ccc(Cl)cc1F [Example 164, 2-(3-(3-(4-chloro-2-fluorophenyl)ureido)-4-((4-chlorobenzyl)(propyl)amino)phenoxy)acetic acid] | < 0.1 µM
3 | CC(C)CN(Cc1ccc(Cl)cc1)c1ccc(OCC(=O)O)cc1NC(=O)Cc1ccc(Cl)cc1F [Example 167, 2-(3-(2-(4-chloro-2-fluorophenyl)acetamido)-4-((4-chlorobenzyl)(isobutyl)amino)phenoxy)acetic acid] | ≥ 0.1 µM
4 | CC(C)CN(c1ccc(OCC(=O)O)cc1NC(=O)Nc1nnc(C(F)(F)F)s1)C1CCCCC1 [Example 8, 2-(4-(cyclohexyl(isobutyl)amino)-3-(3-(5-(trifluoromethyl)-1,3,4-thiadiazol-2-yl)ureido)phenoxy) acetic acid] | ≥ 0.1 µM
5 | CCCN(Cc1ccccc1)c1ccc(OCC(=O)O)cc1NC(=O)Nc1ccc(OCC)cc1 [Example 161, 2-(4-(benzyl(propyl)amino)-3-(3-(4-ethoxyphenyl)ureido)phenoxy)acetic acid] | ≥ 0.1 µM
6 | CCCC(Oc1ccc(N(CC(C)C)C2CCCCC2)c(NC(=O)Nc2ccc(C)cc2)c1)C(=O)O (single isomer, unassigned) [Example 86-1, 2-(4-(cyclohexyl(isobutyl)amino)-3-(3-(p-tolyl)ureido)phenoxy)pentanoic acid] | < 0.1 µM
7 | CCC(Oc1ccc(N(CC(C)C)C2CCCCC2)c(NC(=O)Nc2ccc(C)cc2)c1)C(=O)O (single isomer, unassigned) [Example 82-2, 2-(4-(cyclohexyl(isobutyl)amino)-3-(3-(p-tolyl)ureido)phenoxy)butanoic acid] | < 0.1 µM
8 | CC(C)CN(c1ccc(OCC(=O)O)cc1NC(=O)Nc1ccncc1)C1CCCCC1 [Example 5, 2-(4-(cyclohexyl(isobutyl)amino)-3-(3-(pyridin-4-yl)ureido)phenoxy)acetic acid] | ≥ 0.1 µM
9 | CC(C)CN(c1ccc(OCC(=O)O)cc1NC(=O)N(C)c1ccc(F)cc1)C1CCCCC1 [Example 41, 2-(4-(cyclohexyl(isobutyl)amino)-3-(3-(4-fluorophenyl)-3-methyl-ureido)phenoxy)acetic acid] | ≥ 0.1 µM
10 | CC(C)CN(c1ccc(OC(C)C(=O)O)cc1NC(=O)Nc1cncnc1)C1CCCCC1 (single isomer, unassigned) [Example 58-1, 2-(4-(cyclohexyl(isobutyl)amino)-3-(3-(pyrimidin-5-yl)ureido)phenoxy)propanoic acid] | ≥ 0.1 µM
11 | CC(C)CN(c1ccc(OC(C)C(=O)NS(=O)(=O)C2CC2)cc1NC(=O)Cc1ccc(Cl)c(F)c1)C1CCCCC1 (racemic) [Example 79, (±)-2-(3-(2-(4-chloro-3-fluorophenyl)acetamido)-4-(cyclohexyl(isobutyl)amino)phenoxy)-N-(cyclopropylsulfonyl) propanamide] | ≥ 0.1 µM
12 | C=C(C)CN(c1ccc(OC(C)C(=O)O)cc1NC(=O)Nc1ccc(Cl)cc1F)C1CCOCC1 (stereo not shown) [Example 138, 2-(3-(3-(4-chloro-2-fluorophenyl)ureido)-4-((2-methylallyl)(tetrahydro-2H-pyran-4-yl)amino)phenoxy)propanoic acid] | < 0.1 µM
13 | CCCN(Cc1ccccc1)c1ccc(OCC(=O)O)cc1NC(=O)Nc1ccc(OC(F)(F)F)cc1 [Example 160, 2-(4-(benzyl(propyl)amino)-3-(3-(4-(trifluoromethoxy)phenyl)ureido)phenoxy)acetic acid] | ≥ 0.1 µM
14 | COCC(Oc1ccc(N(CC(C)C)C2CCCCC2)c(NC(=O)Nc2ccc(C)cc2)c1)C(=O)O (single isomer, unassigned) [Example 90-1, 2-(4-(cyclohexyl(isobutyl)amino)-3-(3-(p-tolyl)ureido)phenoxy)-3-methoxypropanoic acid] | ≥ 0.1 µM
15 | CC(C)CN(c1ccc(OCC(=O)O)cc1NC(=O)Nc1ccc(C#N)cc1)C1CCCCC1 [Example 39, 2-(3-(3-(4-cyanophenyl)ureido)-4-(cyclohexyl(isobutyl)amino)phenoxy)acetic acid] | ≥ 0.1 µM
16 | CC(C)CN(c1ccc(OC(C)C(=O)O)cc1Nc1nc2ccccc2o1)C1CCCCC1 (racemic) [Example 62, (±)-2-(3-(benzo[d]oxazol-2-ylamino)-4-(cyclohexyl (isobutyl)amino)phenoxy)propanoic acid] | ≥ 0.1 µM
17 | CC(C)CN(c1ccc(OC(C)C(=O)O)cc1NC(=O)Nc1ccc(Cl)cc1F)C1CCOC1 (single isomer, unassigned) [Example 146-1, 2-(3-(3-(4-chloro-2-fluorophenyl)ureido)-4-(isobutyl(tetrahydrofuran-3-yl)amino)phenoxy)propanoic acid] | ≥ 0.1 µM

Continued, values first:

Row | IC50 | SMILES
18 | < 0.1 µM | CC(C)CN(c1ccc(OC(C)C(=O)O)cc1NC(=O)Cc1ccc(Cl)cc1F)C1CCCCC1 (racemic) [Example 73]
19 | < 0.1 µM | COc1cc(F)c(NC(=O)Nc2cc(OCC(=O)O)ccc2N(CC(C)C)C2CCCCC2)cc1F [Example 29, 2-(4-(cyclohexyl(isobutyl)amino)-3-(3-(2,5-difluoro-4-methoxy-phenyl)ureido)phenoxy)acetic acid]
20 | < 0.005 µM | CC(C)CN(c1cc(F)c(OCC(=O)O)cc1NC(=O)Nc1ccc(Cl)cc1F)C1CCCCC1 [Example 115, 2-(5-(3-(4-chloro-2-fluorophenyl)ureido)-4-(cyclohexyl(isobutyl)amino)-2-fluorophenoxy)acetic acid]
21 | < 0.005 µM | CC(C)CN(c1ccc(OCC(=O)O)cc1NC(=O)Nc1ccc(C#N)cc1F)C1CCCCC1 [Example 43, 2-(3-(3-(4-cyano-2-fluorophenyl)ureido)-4-(cyclohexyl(isobutyl)amino)phenoxy)acetic acid]
22 | < 0.005 µM | Cc1ccc(NC(=O)Nc2cc(OC(C)C(=O)O)ccc2N(CC(C)C)C2CCCCC2)c(F)c1 (single isomer, unassigned) [Example 65-2, 2-(4-(cyclohexyl(isobutyl)amino)-3-(3-(2-fluoro-4-methylphenyl)ureido)phenoxy)propanoic acid]
23 | < 0.005 µM | CCOC(=O)C(C)Oc1ccc(N(CC(C)C)C2CCCCC2)c(NC(=O)Nc2ccc(Cl)cc2F)c1 (racemic) [racemic 67]
24 | < 0.1 µM | CC(C)CN(c1ccc(OCC(=O)O)cc1NC(=O)Nc1ccc(F)cc1)C1CCCCC1 [Example 17, 2-(4-(cyclohexyl(isobutyl)amino)-3-(3-(4-fluorophenyl)ureido)phenoxy)acetic acid]
25 | ≥ 0.1 µM | CC(C)CN(c1ccc(OCC(=O)Nc2nccs2)cc1NC(=O)Nc1ccc(Cl)cc1F)C1CCCCC1 [Example 155, 2-(3-(3-(4-chloro-2-fluorophenyl)ureido)-4-(cyclohexyl(isobutyl)amino)phenoxy)-N-(thiazol-2-yl)acetamide]
26 | < 0.005 µM | CC(C)CN(c1ccc(OCC(=O)NS(=O)(=O)c2cccs2)cc1NC(=O)Nc1ccc(Cl)cc1F)C1CCCCC1 [Example 49]
27 | < 0.005 µM | CC(C)CN(c1c(F)cc(OCC(=O)O)cc1NC(=O)Nc1ccc(Cl)cc1F)C1CCCCC1 [Example 104, 2-(3-(3-(4-chloro-2-fluorophenyl)ureido)-4-(cyclohexyl(isobutyl)amino)-5-fluorophenoxy)acetic acid]
28 | ≥ 0.1 µM | Cc1ccc(F)cc1NC(=O)Nc1cc(OCC(=O)O)ccc1N(CC(C)C)C1CCCCC1 [Example 30, 2-(4-(cyclohexyl(isobutyl)amino)-3-(3-(5-fluoro-2-methylphenyl)ureido)phenoxy)acetic acid]
29 | < 0.005 µM | Cc1ccc(NC(=O)Nc2cc(OCC(=O)O)ccc2N(CC(C)C)C2CCCCC2)c(F)c1 [Example 23, 2-(4-(cyclohexyl(isobutyl)amino)-3-(3-(2-fluoro-4-methylphenyl)ureido)phenoxy) acetic acid]
30 | ≥ 0.1 µM | CC(C)CN(c1ccc(OCC(=O)O)cc1NC(=O)Nc1cccc(Cl)c1F)C1CCCCC1 [Example 26, 2-(3-(3-(3-chloro-2-fluorophenyl)ureido)-4-(cyclo-hexyl(isobutyl)amino)phenoxy) acetic acid]
31 | ≥ 0.1 µM | COc1ccc(NC(=O)Nc2cc(OCC(=O)O)ccc2N(CC(C)C)C2CCCCC2)cc1F [Example 34, 2-(4-(cyclohexyl(isobutyl)amino)-3-(3-(3-fluoro-4-methoxyphenyl)ureido)phenoxy) acetic acid]
32 | ≥ 0.1 µM | CC(C)CN(c1ccc(OCC(=O)O)cc1NC(=O)Nc1c(F)cccc1F)C1CCCCC1 [Example 19, 2-(4-(cyclohexyl(isobutyl)amino)-3-(3-(2,6-difluorophenyl)ureido)phenoxy)acetic acid]
33 | < 0.005 µM | CC(C)CN(c1ccc(OCC(=O)O)cc1NC(=O)Nc1ccc(Cl)cc1F)C1CCC(F)(F)CC1 [Example 98, 2-(3-(3-(4-Chloro-2-fluorophenyl)ureido)-4-((4,4-difluorocyclohexyl)(isobutyl)amino)-phenoxy)acetic acid]
34 | ≥ 0.1 µM | CC(C)CN(c1ccc(OCC(=O)O)cc1NC(=O)Nc1ccc(F)c(Cl)c1F)C1CCCCC1 [Example 24, 2-(3-(3-(3-chloro-2,4-difluorophenyl)ureido)-4-(cyclo-hexyl(isobutyl)amino)phenoxy) acetic acid]
